Experimental data published in patent publication US10952940B2, “Reagents and methods for mineralization of tooth enamel” (UNIVERSITY OF WASHINGTON, priority 2016, dated 2021).
Several values for one entry are separate records, joined by “and”; a condition that tells them apart may be missing. Equal values may be shown once. Entries after “also recorded” stand apart in the source; their conditions may differ. Where no end group is shown, it is not given here.

Experiments:
[1] = Mineralization in aqueous solution (kinetics)
Experimental: Fast kinetics refers to fast mineral formation, such as immediate mineral formation, while slow mineral formation refers to mineral formation over a period of time, such as about 5 minutes to about 1 hour. In some embodiments, a first biomineralizing peptide having faster kinetics can be used in combination with a second biomineralizing peptide having slower kinetics.
The ADP5 peptide was generated using a procedure that was developed for designing protein derived peptides as described previously. Briefly, 7-AA and 12-AA long hydroxyapatite binding peptides (HABPs) were experimentally selected using the c7c- and 12-phage libraries (New England BioLabs Inc., Ipswich, Mass., USA), respectively. Next, the 180 amino acid-long human amelogenin protein (rM180) was divided into 7-AA and 12-AA long segments and each segment was compared with all of the 155 experimentally selected HABPs. The regions with high similarity scores from 7-AA and 12-AA long segments were overlapped and those coinciding high similarity regions were chosen as the putative strong binding regions. These computationally determined high similarity regions were then refined to design the ADPs by protein structure prediction, Ca^2+ ion-binding domain predictions, and meta-functional signature analyses. […]

[2] = Solid binding affinity to HAp
Excerpt: The ADP5 peptide was generated using a procedure that was developed for designing protein derived peptides as described previously. Briefly, 7-AA and 12-AA long hydroxyapatite binding peptides (HABPs) were experimentally selected using the c7c- and 12-phage libraries (New England BioLabs Inc., Ipswich, Mass., USA), respectively. Next, the 180 amino acid-long human amelogenin protein (rM180) was divided into 7-AA and 12-AA long segments and each segment was compared with all of the 155 experimentally selected HABPs. The regions with high similarity scores from 7-AA and 12-AA long segments were overlapped and those coinciding high similarity regions were chosen as the putative strong binding regions. These computationally determined high similarity regions were then refined to design the ADPs by protein structure prediction, Ca^2+ ion-binding domain predictions, and meta-functional signature analyses. Two separate assays were developed to characterize the ADPs: Solid binding affinity to HAp and mineralization in aqueous solution. […] Because of this property, ADP5 has been used for developing mineralization on human teeth. […] For this, we eliminated the six amino acids from the amino end and alanine from the carboxyl end, while keeping the charged amino acids intact that are thought to initiate mineralization. […]

[3] = Side-by-side comparison of peptide-mineralized whitening versus commercial whitening products; conditions: Image-J analysis of optical images; strip 30 mins, gel 10 minutes, peptide 0.8 mM 10 mins + artificial saliva 1 hr
Experimental: The whitening products were used according to the manufacturers' directions. For the strip, the product was applied to the pre-stained tooth for 30 mins and peeled off. Then the samples were rinsed with water for 1 min to clean the surface of the teeth from any residues from the strip. In the case of the second product, the gel was applied to the pre-stained teeth for 10 minutes and then cleaned by rinsing with water for 1 minute. In the peptide-remineralization case, the stained teeth were incubated with sADP5 (SEQ ID NO:24) peptide solution (0.8 mM) for 10 mins., followed by soaking in the artificial saliva (for 1 hr) that was supplemented with 4.8 mM Ca and 2.9 mM PO4 ionic concentrations.
The samples treated with whitening products or with the remineralization method were prepared for optical imaging for color change and also for surface characterization with scanning electron microscopy. The images of the teeth samples were recorded using a light optical microscopy technique under compact fluorescent light. The recorded images were digitized and examined with Image-J Line (NIH Software) for quantitative analysis of the color change (a, d, f and h). The cross-sectioned samples were prepared for SEM examination of the internal as well as surface structure of the teeth, and the results are shown in FIG. 15 (e, g, and i, plus their inset images).

[4] = 0.8 mM sADP5 10 minutes, then Ca/PO4 1 hour at 37° C.
Experimental: Extracted human teeth samples were collected from University of Washington clinics. The enamel tissue was cut out the using low speed saw on a perpendicular direction to the underlying dentin tubules. Next, the smear layer on the dentin was removed by polishing down to 0.1 um finish and etching for 10 seconds using 10% citric acid solution. For remineralization treatment, samples were soaked into 200 ul of 0.8 mM sADP5 peptide (SEQ ID NO:24) solution and incubated for 10 minutes at 37° C. Next, excess peptide was removed by blotting and the sample was soaked in 24 mM Tris Buffer solution supplemented with 4.8 mM Ca and 2.88 mM PO4 ions for 1 hour at 37° C. Following the remineralization treatment, samples were rinsed with deionized water, dried in air and characterized with scanning electron microscope

[5] = Layer-by-layer mineralization by peptide in solution on white spot lesion; parameters: species or system human; conditions: 0.8 mM sADP5
Experimental: On extracted human tooth, the entire tooth was painted with lacquer (nail polish) except a 3 mm by 3 mm window on enamel. This window was subjected to etching then remineralization. The following steps were then carried out:
• 1. Etch enamel surface aqueous solution of 2.2 mM K2HPO4, 2.2 mM CaCl2, and 50 mM acetic acid at pH 4.5 for 2 weeks, changing solution every other day, to create white spot lesion (WSL) […]. • 2. Soak in 100 ml of 0.8 mM sADP5 solution at 37 C for 10 minutes then blot dry with tissue paper. • 3. Soak in 600 ml of 4.8 mM CaCl2+2.8 mM K2HPO4 in pH 7.4 Tris buffer at 37 C for 1 hour. • 4. Drip rinse with DI water for 20 seconds then blot dry with Kimwipe™ sheet. • 5. Repeat steps 3-4 to add more mineralized layers. Results & Discussions—

| Substance | mineralization kinetics [1] | binding to HAp [2] | increase of tooth shade above tea-stained baseline [3] | depth of mineral penetration into tubules [4] | occlusion of exposed dentin tubules [4] | Ca/P of new mineral layers ([5]; after 4 repetitions) | number of distinctive mineral layers formed ([5]; after 4 repetitions of the mineralization steps) |
| --- | --- | --- | --- | --- | --- | --- | --- |
| (PGYIN(L/F)SYE(K/N)SHSQAIN(T/V)DRTA)1-10 [ADP5] | fastest mineralization kinetics; also recorded: fast kinetic profile | one of the weakest binding peptides |  |  |  |  |  |
| (SYEKSHSQAINTDRT)1-10 (also: repeated 1-10 times) [sADP5] |  |  | 4.64% and 4.6% | 2-3 um | successfully occluded | 1.43+0.15 | 4 |
| (HPP(S/T)HTLQPHHH(L/I)PVVPAQQPV(A/I)PQQPMMPVPG(H/Q)HSMTP(T/I)QH)1-10 [ADP7] | slow kinetic profile |  |  |  |  |  |  |
